# Where two headings read alike, the source gives them in different places.
# How the values were obtained:
# [1] = test system: caspase-3/7 activity in PLC/PRF/5 cell line; assay: One-step cellular caspase-3/7 activity assay; format: cell-based, human; conditions: 24 hours incubation, relative to 0 nM = 1.00
# Description: (§1) Measurements of proapoptotic properties of new compounds were based on quantification of enzymatic activities of caspases, concretely caspases-3/7. Activity of cellular caspase-3/7 was measured according to Carrasco et al., 2003, BioTechniques, 34(5): 1064-67. Briefly, Hep3B and PLC/PRF/5 cells were incubated in the densities of 10000 cells/well in a 96-well plate overnight. Next day, the compounds in appropriate concentrations were added and cells were incubated for the 24 hours. After incubation, 3× caspase-3/7 assay buffer (150 mM HEPES pH 7.4, 450 mM NaCl, 150 mM KCl, 30 mM MgCl2, 1.2 mM EGTA, 1.5% Nonidet P40, 0.3% CHAPS, 30% sucrose, 30 mM DTT, 3 mM PMSF) with 150 μM Ac-DEVD-AMC as a substrate (Sigma-Aldrich) was added to the wells and plates were incubated at […]. The caspase-3/7 activity was measured after 6 hours using Fluoroskan Ascent microplate reader (Labsystems) at 346 nm/442 nm (excitation/emission).
# [2] = test system: caspase-3/7 activity in Hep3B cell line; assay: One-step cellular caspase-3/7 activity assay; format: cell-based, human; conditions: 24 hours, 0 nM = 1.00
# Description: as §1
# [3] = test system: p53-regulated transcription in Arn8 cells; assay: p53-dependent transcriptional activity, β-galactosidase reporter; format: cell-based; conditions: 24 h incubation
# Description: Stronger anticancer activity of the compounds is enhanced by its positive impact on stability and activity of the tumour suppressor p53. To measure p53-dependent transcriptional activity, β-galactosidase activity was quantified in the melanoma cell line Arn8, which had been established using stable transfection of cells with a p53-responsive reporter construct pRGCAfoslacZ (Frebung et al., Cancer Res., 52, 1992-6976). Briefly, after 24 h incubation with the inhibitors the Arn8 cells were permeabilized with 0.3% Triton X-100 for 15 min and then 4-methylumbelliferon-β-D-galactopyranoside was added as a substrate to the final concentration of 80 μM. After 1 h the fluorescence of product 4-methylumbelliferon was measured at 355/460 nm (ex/em) with a Fluoroskan Ascent microplate reader (Labsystems). Data in Tab. 8 present that series of 2-substituted-6-biarylmethylamino-9-cyclopentyl-9H-purine derivatives show a dose-dependent activatory effect on p53-regulated transcription, with the maximum impact observed between 100 and 500 nM concentrations for most of prepared compounds (Tab. 8).
# [4] = test system: Hep3B; assay: MTT cytotoxicity assay (Example 30); format: cell-based, human; conditions: MTT, three days after drug addition, read-out: Inhibitory concentration IC50, Hep3B
# Description: (§2) Cytotoxicity of the compounds is the major property determining their anticancer effect in vivo. One of the parameters used, as the basis for cytotoxicity assays, is the metabolic activity of viable cells.
# (§3) We have been using the following cell lines: HUH-7 and PLC/PRF/5 cell lines were maintained in DMEM supplemented with 10% fetal bovine serum, penicillin (100 U/ml) and streptomycin (100 μg/ml). […] HepG2 cell line was maintained in EMEM supplemented with 10% fetal bovine serum, sodium pyruvate (0.11 g/1), penicillin (100 U/ml) and streptomycin (100 μg/ml). All cell lines were cultivated at 37° C. in 5% CO2. For cytotoxicity assays, 3000 cells (10000 cells in case of HepG2 cell line) were seeded into each well of 96 well plate and the next day tested compounds were added at various concentrations in triplicates. Three days after drug addition MTT stock solution (5 mg/ml) was added into each well and incubated for 4 h. After this incubation period, produced formazan was dissolved by DMSO and final absorbance was measured at 570 nm with Synergy H4 Hybrid Multi-Mode Microplate Reader.
# [5] = test system: HCC-1.1 (3sp); assay: MTT cytotoxicity assay (Example 30); format: cell-based; conditions: Homo sapiens, 72 h; MTT, three days after drug addition; read-out: Inhibitory concentration IC50, 3sp
# Description: as §2, §3
# [6] = test system: HepG2; assay: MTT cytotoxicity assay (Example 30); format: cell-based; conditions: Homo sapiens, HepG2, 72 h; MTT, three days after drug addition; read-out: Inhibitory concentration IC50, HepG2
# Source text: Cytotoxicity of the compounds is the major property determining their anticancer effect in vivo. One of the parameters used, as the basis for cytotoxicity assays, is the metabolic activity of viable cells. For example, a microtiter assay, which uses (3-(4,5-Dimethylthiazol-2-yl)-2,5-diphenyltetrazolium bromide (MTT), is widely used to quantitate cell proliferation and cytotoxicity. For instance, this assay is used in drug screening programs and in chemosensitivity testing. Because only metabolically active living cells reduce MTT to correspond purple formazan dye, these assays detect viable cells exclusively. The quantity of reduced MTT corresponds to the number of vital cells in the culture.
# We have been using the following cell lines: HUH-7 and PLC/PRF/5 cell lines were maintained in DMEM supplemented with 10% fetal bovine serum, penicillin (100 U/ml) and streptomycin (100 μg/ml). Unique HCC-1.2 (3p) and HCC-1.1 (3sp) cell lines (Zilj et al., 2009, Future Oncol, 5(8):1169-79) and Hep3B cells were cultivated in RPMI supplemented with 10% fetal bovine serum, penicillin (100 U/ml) and streptomycin (100 μg/ml). HepG2 cell line was maintained in EMEM supplemented with 10% fetal bovine serum, sodium pyruvate (0.11 g/1), penicillin (100 U/ml) and streptomycin (100 μg/ml). All cell lines were cultivated at 37° C. in 5% CO2. For cytotoxicity assays, 3000 cells (10000 cells in case of HepG2 cell line) were seeded into each well of 96 well plate and the next day tested compounds were added at various concentrations in triplicates. Three days after drug addition MTT stock solution (5 mg/ml) was added into each well and incubated for 4 h. After this incubation period, produced formazan was dissolved by DMSO and final absorbance was measured at 570 nm with Synergy H4 Hybrid Multi-Mode Microplate Reader.
# [7] = test system: HUH-7; assay: MTT cytotoxicity assay (Example 30); format: cell-based; conditions: Homo sapiens, Huh-7, 72 h; MTT, three days after drug addition; read-out: Inhibitory concentration IC50, HUH-7
# Description: as §2, §3
# [8] = test system: PLC/PRF/5; assay: MTT cytotoxicity assay (Example 30); format: cell-based; conditions: Homo sapiens, PLC-PRF-5, 72 h; MTT, three days after drug addition; read-out: Inhibitory concentration IC50, PLC/PRF/5
# Description: as §2, §3
# [9] = test system: HCC-1.2 (3p); assay: MTT cytotoxicity assay (Example 30); format: cell-based; conditions: Homo sapiens, HCC-1.2, 72 h; MTT, three days after drug addition; read-out: Inhibitory concentration IC50, 3p
# Description: as §2, §3
# [10] = test system: human umbilical vein endothelial cells (HUVEC); assay: HUVEC proliferation, Calcein AM; format: cell-based; conditions: read-out: Inhibitory concentration for HUVEC cells - IC50
# Description: Novel 2-substituted-6-biarylmethylamino-9-cyclopentyl-9H-purine derivatives were tested for their potential anti-angiogenic properties; we analyzed its influence on the proliferation (Tab. 9), migration and tube formation of human umbilical vein endothelial cells (HUVEC). Confluent HUVECs were seeded in 96-well microtiter plates to detect their proliferation for 24 or 72 h using Calcein AM solution (Invitrogen) and a Fluoroskan Ascent microplate reader (Labsystems) as described previously (Krystof et al., 2011, Eur J Med Chem. 2011 September; 46(9):4289-94).
# [11] = test system: human umbilical vein endothelial cells (HUVECs); assay: Migration scratch assay; format: cell-based; parameters: key to Wound area: ++: open; +: partly open; 0: closed; conditions: 24 h
# Description: Migration assay was performed as described previously (Krystof et al., 2011, Eur J Med Chem.; 46(9):4289-94). Briefly, confluent HUVECs were scratched and immediately treated for 24 h with various doses of compounds. After incubation each well was photographed using a DP Controller system (Olympus) connected to a Olympus BX50 microscope. Migration was expressed as the proportion of pixels of the wound area in the image that were not covered by cells using “in house” software.
compound,measurement,setting,value
Clc1nc(NCc2ccc(Br)nc2)c2ncn(C3CCCC3)c2n1,melting point,,178 to 179 °C
"NC1CCC(Nc2nc(NCc3ccc(-c4ccccc4O)cc3)c3ncn(C4CCCC4)c3n2)CC1 (centres unmarked) [BP17, N^2-(4-amino-cyclohexyl)-9-cyclopentyl-N^6-(2′-hydroxy-biphenyl-4-ylmethyl)-9H-purine-2,6-diamine]",Relative caspase-3/7 activity in PLC/PRF/5 cell line,[1]; compound concentration 160 nM,1.08
same,Relative caspase-3/7 activity in PLC/PRF/5 cell line,[1]; compound concentration 320 nM,1.09
same,Relative caspase-3/7 activity in PLC/PRF/5 cell line,[1]; compound concentration 640 nM,0.99
same,Relative caspase-3/7 activity in PLC/PRF/5 cell line,[1]; compound concentration 1280 nM,1.20
same,Relative caspase-3/7 activity in Hep3B cell line,[2]; 200 nM,0.89
same,Relative caspase-3/7 activity in Hep3B cell line,[2]; 400 nM,0.87
same,Relative caspase-3/7 activity in Hep3B cell line,[2]; 800 nM,0.96
same,Relative caspase-3/7 activity in Hep3B cell line,[2]; 1600 nM,0.63
same,Concentration of maximum activation,[3],950 nM
same,melting point,,168 to 170 °C
"Clc1nc(NCc2ccc(-n3cccn3)cc2)c2ncn(C3CCCC3)c2n1 [BP23, (2-chlor-9-cyclopentyl-9H-purine-6-yl)-(4-pyrazol-1-yl-benzyl)-amine]",IC50,"[4]; Homo sapiens, Hep3B, 72 h",432 nM
same,melting point,,165 to 167 °C
same,IC50,[5],468 nM
"Clc1nc(NCc2ccc(-c3cccs3)nc2)c2ncn(C3CCCC3)c2n1 [BP29, (2-chlor-9-cyclopentyl-9H-purine-6-yl)-(6-thiophen-2-yl-pyridin-3-ylmethyl)-amine]",IC50,"[4]; Homo sapiens, Hep3B, 72 h",792 nM
same,melting point,,111 to 114 °C
same,IC50,[5],843 nM
"Clc1nc(NCc2ccc(Br)cc2)c2ncn(C3CCCC3)c2n1 [BP101, (4-bromo-benzyl)-(2-chloro-9-cyclopentyl-9H-purine-6-yl)-amine]",melting point,,152 to 154 °C
"NC1CCC(Nc2nc(NCc3ccc(Br)cc3)c3ncn(C4CCCC4)c3n2)CC1 (centres unmarked) [BP102, N^2-(4-amino-cyclohexyl)-N^6-(4-bromo-benzyl)-9-cyclopentyl-9H-purine-2,6-diamine]",IC50,[6],> 1000 nM
same,IC50,"[4]; Homo sapiens, Hep3B, 72 h",268 nM
same,IC50,[5],441 nM
same,IC50,[7],386 nM
same,IC50,[8],644 nM
same,IC50,[9],492 nM
"CC(C)(O)CNc1nc(NCc2ccc(Br)cc2)c2ncn(C3CCCC3)c2n1 [BP114, 1-[6-(4-bromo-benzylamino)-9-cyclopentyl-9H-purine-2-ylamino]-2-methyl-propan-2-ol]",melting point,,108 to 110 °C
"CC(C)(O)CNc1nc(NCc2ccc(-c3ccco3)cc2)c2ncn(C3CCCC3)c2n1 [BP115, 1-[9-Cyclopentyl-6-(4-furan-2-yl-benzylamino)-9H-purine-2-ylamino]-2-methyl-propan-2-ol]",Relative caspase-3/7 activity in PLC/PRF/5 cell line,[1]; compound concentration 160 nM,1.17
same,Relative caspase-3/7 activity in PLC/PRF/5 cell line,[1]; compound concentration 320 nM,1.05
same,Relative caspase-3/7 activity in PLC/PRF/5 cell line,[1]; compound concentration 640 nM,0.88
same,Relative caspase-3/7 activity in PLC/PRF/5 cell line,[1]; compound concentration 1280 nM,0.98
same,Relative caspase-3/7 activity in Hep3B cell line,[2]; 200 nM,0.94
same,Relative caspase-3/7 activity in Hep3B cell line,[2]; 400 nM,1.05
same,Relative caspase-3/7 activity in Hep3B cell line,[2]; 800 nM,1.19
same,Relative caspase-3/7 activity in Hep3B cell line,[2]; 1600 nM,0.81
same,Concentration of maximum activation,[3],870 nM
same,melting point,,121 to 123 °C
"Clc1nc(NCc2ccc(-c3ccco3)nc2)c2ncn(C3CCCC3)c2n1 [BP116, (2-chloro-9-cyclopentyl-9H-purine-6-yl)-(6-furan-2-yl-pyridin-3-ylmethyl)-amine]",IC50,"[4]; Homo sapiens, Hep3B, 72 h",298 nM
same,melting point,,119 to 122 °C
same,IC50,[5],371 nM
"Clc1nc(NCc2ccc(-c3ccco3)cc2)c2ncn(C3CCCC3)c2n1 [BP118, (2-chloro-9-cyclopentyl-9H-purine-6-yl)-(4-furan-2-yl-benzyl)-amine]",melting point,,135 to 137 °C
"CCC(CO)Nc1nc(NCc2ccc(-c3ccccn3)cc2)c2ncn(C(C)C)c2n1 (centres unmarked) [CR8, reference compound]",IC50,[4],> 2000 nM
same,IC50,[10]; 24 h,> 50000 nM
same,IC50,[10]; 72 h,610 nM
same,Concentration of maximum activation,[3],1600 nM
same,Wound area,[11]; 100 nM,0
same,Wound area,[11]; 1000 nM,+
"Cn1cnc2c(NCc3ccccc3)nc(NCCO)nc21 [olomoucine, reference compound]",Wound area,[11]; 100 nM,0
same,Wound area,[11]; 1000 nM,0
"CC[C@H](CO)Nc1nc(NCc2ccccc2)c2ncn(C(C)C)c2n1 [roscovitine, reference compound]",Concentration of maximum activation,[3],>10000 nM
same,Wound area,[11]; 100 nM,0
same,Wound area,[11]; 1000 nM,0

# Source: patent US20150368248A1, “2-SUBSTITUTED-6-BIARYLMETHYLAMINO-9-CYCLOPENTYL-9H-PURINE DERIVATIVES, USE THEREOF AS MEDICAMENTS, AND PHARMACEUTICAL COMPOSITIONS” (UNIVERZITA PALACKEHO V OLOMOUCI, priority 2013, published 2015)
